Experiments:
Assay type in all cases: biochemical
[1] = target: T1, IDH1 (isocitrate dehydrogenase 1) (Homo sapiens, UniProt O75874); experiment: bidirectional cyclic voltammetry of 2OG/isocitrate interconversion with CO2 supplied by carbonic anhydrase
T1 construct: homodimeric (2 × 47 kDa)

[2] = target: T2, IDH1 R132H (isocitrate dehydrogenase 1) (Homo sapiens, UniProt O75874, R132H); experiment: electrochemical turnover (cyclic voltammetry) with nanoconfined purified enzyme
T2 construct: homodimeric (2 × 47 kDa)
T2 sequence (O75874 2-414 R132H): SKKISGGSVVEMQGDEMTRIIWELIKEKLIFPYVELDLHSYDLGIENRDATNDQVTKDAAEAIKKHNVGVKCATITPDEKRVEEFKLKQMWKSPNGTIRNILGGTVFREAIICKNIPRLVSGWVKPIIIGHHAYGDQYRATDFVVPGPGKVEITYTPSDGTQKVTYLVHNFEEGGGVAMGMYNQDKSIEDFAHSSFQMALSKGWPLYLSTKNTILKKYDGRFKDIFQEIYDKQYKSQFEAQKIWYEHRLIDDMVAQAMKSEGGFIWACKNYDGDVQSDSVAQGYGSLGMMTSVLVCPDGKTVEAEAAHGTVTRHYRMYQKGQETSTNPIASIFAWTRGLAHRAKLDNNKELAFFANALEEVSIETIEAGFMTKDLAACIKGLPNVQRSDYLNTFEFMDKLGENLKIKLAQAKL

[3] = target: T1, IDH1 (isocitrate dehydrogenase 1); experiment: as above

T1 sequence (O75874 2-414): as the sequence (O75874 2-414 R132H) above, with H131R counted along it

Row | Structure (SMILES) | bidirectional cyclic voltammetry of 2OG/isocitrate interconversion with CO2 supp [1] | electrochemical turnover (cyclic voltammetry) with nanoconfined purified enzyme [2] | electrochemical turnover (cyclic voltammetry) with nanoconfined purified enzyme [3]
1 | O=C(O)CCC(=O)C(=O)O [2OG, 2-oxoglutarate] | Cyclic voltammetry measuring bidirectionality of IDH1-catalyzed 2OG/isocitrate interconversion at different 2OG/isocitrate ratios | R132H-catalyzed 2OG reduction (Figure 1C, D) is much slower, manifesting low currents | –
2 | O=C(O)CC(C(=O)O)C(O)C(=O)O (stereo not drawn) [isocitrate] | – | – | IDH1 (Figure 1A, B) is an excellent catalyst for isocitrate oxidation

Reference: PMC8273889, “Exploiting Electrode Nanoconfinement to Investigate the Catalytic Properties of Isocitrate Dehydrogenase (IDH1) and a Cancer-Associated Variant” (The Journal of Physical Chemistry Letters, 2021)
